# B1: NT-proBNP: N-terminal pro peptide of 76 amino acids, cleaved from proBNP; inactive counterpart of BNP (protein, UniProt P16860 27-102, looked up)
# NT-proBNP: HPLGSPGSASDLETSGLQEQRNHLQGKLSELQVEQTSLEPLQESPRPTGVWKSREVATEGIRGHRKMVLYTLRAPR
# modifications: NT-proBNP
# Experiments:
# [1] = cited from earlier work
# [2] = parameters: species or system patients; details: human, in vivo, 24 weeks
# Method: NT-proBNP was measured in baseline serum samples from 433 patients entering a prospective study, designed primarily to define the therapeutic effect of a novel metallo-proteinase inhibitor in osteoarthritis (OA). Cardiovascular adverse events (CV-AEs) were monitored and related to the concomitant use of cox-2 inhibitors or NSAIDs or prostaglandin metabolism influencing steroids. In a retrospective analysis the question was evaluated whether CV AEs in patients receiving anti-inflammatory drugs could have been predicted from elevated NT-proBNP values. […]
# Permitted rescue anti-inflammatory drugs including cox-2 inhibitors and NSAIDs or steroids for this trial were aspirin, diclofenac sodium, diflunisal, etodolac, fenoprofen, ibuprofen, ketoprofen, naproxen, nabumetone, oxaprozin, piroxicam, sodium salicylate, choline magnesium salicylate, celecoxib, rofecoxib or tolmetin. […] Patients were not enquired actively for the occurrence of angina pectoris, signs or symptoms of congestive heart failure, or arterial hypertension, nor was the ECG routinely evaluated for the occurrence of new Q-waves or new bundle branch block. […]
# [3] = cited from earlier work; remark: listed apart in the source
# [4] = 48 hours at room temperature or at 4° Celsius; cited from earlier work
molecule,measurement,setting,value
CS(=O)(=O)c1ccc(C2=C(c3ccccc3)C(=O)OC2)cc1 [Rofecoxib],"additional cardiovascular incidents (myocardial infarction, stroke)","[1]; 25 mg compared with placebo, after 18 months of follow-up","16 per 1,000 treated patients"
same,blood pressure levels,"[1]; 25 mg versus placebo, early post-observation phase",higher blood pressure levels
same,rise in the rate of serious thromboembolic incidents,[1]; APPROVE study,3.9 times
CC(=O)Nc1ccc(O)cc1 [acetaminophen],"Hazard Ratio of covariate (takes drug at baseline), time to CV adverse events",[2],0.653
"BNP: active natriuretic hormone of 32 amino acids, cleaved from proBNP",in-vivo half-life,[3]; in vivo,0.333 h
same,concentration loss on storage,[4],at least 20%
B1,"in-vivo half-life, longer than that of BNP",[3]; difference to BNP,2 h

# From US7432107B2, “Cardiac hormones for assessing cardiovascular risk” (Roche Diagnostics Operations, Inc., priority 2005, dated 2008)
